Measured values from the NIST ThermoML archive (doi:10.1021/je900672g).
± gives the expanded uncertainty stated by the source.

Experiment: isobaric coefficient of expansion
Settings: Liquid, DSC

C[N+](=O)[O-] [nitromethane]
isobaric coefficient of expansion
Settings	278.15 K	288.15 K	298.15 K	308.15 K	318.15 K	328.15 K	338.15 K	348.15 K
5000 kPa	0.00116 ± 2.8e-05 1/K	0.00118 ± 2.9e-05 1/K	0.00121 ± 3e-05 1/K	0.00123 ± 3e-05 1/K	0.00126 ± 3.1e-05 1/K	0.00129 ± 3.2e-05 1/K	0.00134 ± 3.3e-05 1/K	0.00138 ± 3.4e-05 1/K
10000 kPa	0.00114 ± 2.8e-05 1/K	0.00116 ± 2.8e-05 1/K	0.00118 ± 2.9e-05 1/K	0.0012 ± 2.9e-05 1/K	0.00123 ± 3e-05 1/K	0.00126 ± 3.1e-05 1/K	0.00128 ± 3.1e-05 1/K	0.00132 ± 3.2e-05 1/K
15000 kPa	0.00113 ± 2.8e-05 1/K	0.00114 ± 2.8e-05 1/K	0.00116 ± 2.8e-05 1/K	0.00118 ± 2.9e-05 1/K	0.00119 ± 2.9e-05 1/K	0.00121 ± 3e-05 1/K	0.00124 ± 3e-05 1/K	0.00127 ± 3.1e-05 1/K
20000 kPa	0.0011 ± 2.7e-05 1/K	0.00112 ± 2.7e-05 1/K	0.00113 ± 2.8e-05 1/K	0.00115 ± 2.8e-05 1/K	0.00116 ± 2.8e-05 1/K	0.00117 ± 2.9e-05 1/K	0.0012 ± 3e-05 1/K	0.00122 ± 3e-05 1/K
25000 kPa	0.00108 ± 2.6e-05 1/K	0.0011 ± 2.7e-05 1/K	0.00111 ± 2.7e-05 1/K	0.00112 ± 2.7e-05 1/K	0.00113 ± 2.8e-05 1/K	0.00114 ± 2.8e-05 1/K	0.00117 ± 2.9e-05 1/K	0.00119 ± 2.9e-05 1/K
30000 kPa	0.00106 ± 2.6e-05 1/K	0.00108 ± 2.6e-05 1/K	0.00109 ± 2.7e-05 1/K	0.0011 ± 2.7e-05 1/K	0.00111 ± 2.7e-05 1/K	0.00112 ± 2.7e-05 1/K	0.00113 ± 2.8e-05 1/K	0.00115 ± 2.8e-05 1/K
35000 kPa	0.00105 ± 2.6e-05 1/K	0.00106 ± 2.6e-05 1/K	0.00107 ± 2.6e-05 1/K	0.00108 ± 2.6e-05 1/K	0.00109 ± 2.7e-05 1/K	0.0011 ± 2.7e-05 1/K	0.00111 ± 2.7e-05 1/K	0.00112 ± 2.7e-05 1/K
40000 kPa	0.00103 ± 2.5e-05 1/K	0.00104 ± 2.6e-05 1/K	0.00105 ± 2.6e-05 1/K	0.00105 ± 2.6e-05 1/K	0.00106 ± 2.6e-05 1/K	0.00107 ± 2.6e-05 1/K	0.00107 ± 2.6e-05 1/K	0.00108 ± 2.6e-05 1/K
45000 kPa	0.00102 ± 2.5e-05 1/K	0.00102 ± 2.5e-05 1/K	0.00103 ± 2.5e-05 1/K	0.00103 ± 2.5e-05 1/K	0.00104 ± 2.6e-05 1/K	0.00105 ± 2.6e-05 1/K	0.00105 ± 2.6e-05 1/K	0.00106 ± 2.6e-05 1/K
50000 kPa	0.001 ± 2.5e-05 1/K	0.00101 ± 2.5e-05 1/K	0.00101 ± 2.5e-05 1/K	0.00102 ± 2.5e-05 1/K	0.00103 ± 2.5e-05 1/K	0.00103 ± 2.5e-05 1/K	0.00103 ± 2.5e-05 1/K	0.00103 ± 2.5e-05 1/K
55000 kPa	0.000986 ± 2.4e-05 1/K	0.000992 ± 2.4e-05 1/K	0.000998 ± 2.4e-05 1/K	0.001 ± 2.5e-05 1/K	0.00101 ± 2.5e-05 1/K	0.00101 ± 2.5e-05 1/K	0.00102 ± 2.5e-05 1/K	0.00102 ± 2.5e-05 1/K

O=[N+]([O-])c1ccccc1 [nitrobenzene]
isobaric coefficient of expansion
Settings	288.15 K	298.15 K	308.15 K	318.15 K	328.15 K	338.15 K	348.15 K
5000 kPa	0.000818 ± 2e-05 1/K	0.000823 ± 2e-05 1/K	0.000827 ± 2e-05 1/K	0.000832 ± 2e-05 1/K	0.000837 ± 2.1e-05 1/K	0.000843 ± 2.1e-05 1/K	0.000852 ± 2.1e-05 1/K
10000 kPa	0.000813 ± 2e-05 1/K	0.000808 ± 2e-05 1/K	0.000812 ± 2e-05 1/K	0.00082 ± 2e-05 1/K	0.000821 ± 2e-05 1/K	0.000828 ± 2e-05 1/K	0.000827 ± 2e-05 1/K
15000 kPa	0.000797 ± 2e-05 1/K	0.0008 ± 2e-05 1/K	0.000799 ± 2e-05 1/K	0.000802 ± 2e-05 1/K	0.000802 ± 2e-05 1/K	0.000806 ± 2e-05 1/K	0.000811 ± 2e-05 1/K
20000 kPa	0.000785 ± 1.9e-05 1/K	0.000785 ± 1.9e-05 1/K	0.000787 ± 1.9e-05 1/K	0.000792 ± 1.9e-05 1/K	0.000787 ± 1.9e-05 1/K	0.00079 ± 1.9e-05 1/K	0.000794 ± 1.9e-05 1/K
25000 kPa	0.000775 ± 1.9e-05 1/K	0.000772 ± 1.9e-05 1/K	0.000773 ± 1.9e-05 1/K	0.000774 ± 1.9e-05 1/K	0.000774 ± 1.9e-05 1/K	0.000775 ± 1.9e-05 1/K	0.00078 ± 1.9e-05 1/K
30000 kPa	0.000762 ± 1.9e-05 1/K	0.000762 ± 1.9e-05 1/K	0.00076 ± 1.9e-05 1/K	0.000762 ± 1.9e-05 1/K	0.000761 ± 1.9e-05 1/K	0.000762 ± 1.9e-05 1/K	0.000764 ± 1.9e-05 1/K
35000 kPa	0.000749 ± 1.8e-05 1/K	0.000752 ± 1.8e-05 1/K	0.00075 ± 1.8e-05 1/K	0.000749 ± 1.8e-05 1/K	0.00075 ± 1.8e-05 1/K	0.000751 ± 1.8e-05 1/K	0.00075 ± 1.8e-05 1/K
40000 kPa	0.00074 ± 1.8e-05 1/K	0.000742 ± 1.8e-05 1/K	0.000737 ± 1.8e-05 1/K	0.000737 ± 1.8e-05 1/K	0.000739 ± 1.8e-05 1/K	0.000736 ± 1.8e-05 1/K	0.000734 ± 1.8e-05 1/K
45000 kPa	0.000729 ± 1.8e-05 1/K	0.000731 ± 1.8e-05 1/K	0.000728 ± 1.8e-05 1/K	0.000729 ± 1.8e-05 1/K	0.000726 ± 1.8e-05 1/K	0.000725 ± 1.8e-05 1/K	0.000721 ± 1.8e-05 1/K
50000 kPa	0.000725 ± 1.8e-05 1/K	0.000722 ± 1.8e-05 1/K	0.000719 ± 1.8e-05 1/K	0.000718 ± 1.8e-05 1/K	0.000716 ± 1.8e-05 1/K	0.000715 ± 1.8e-05 1/K	0.000711 ± 1.7e-05 1/K
55000 kPa	0.000717 ± 1.8e-05 1/K	0.000714 ± 1.7e-05 1/K	0.00071 ± 1.7e-05 1/K	0.00071 ± 1.7e-05 1/K	0.000707 ± 1.7e-05 1/K	0.000708 ± 1.7e-05 1/K	0.000701 ± 1.7e-05 1/K

N#Cc1ccccc1 [benzonitrile]
isobaric coefficient of expansion
Settings	5000 kPa	10000 kPa	15000 kPa	20000 kPa	25000 kPa	30000 kPa	35000 kPa	40000 kPa	45000 kPa	50000 kPa
278.15 K	0.000841 ± 2.1e-05 1/K	0.000831 ± 2e-05 1/K	0.000829 ± 2e-05 1/K	0.000812 ± 2e-05 1/K	0.000795 ± 1.9e-05 1/K	0.000791 ± 1.9e-05 1/K	0.00078 ± 1.9e-05 1/K	0.000772 ± 1.9e-05 1/K	0.00076 ± 1.9e-05 1/K	0.000752 ± 1.8e-05 1/K
288.15 K	0.000845 ± 2.1e-05 1/K	0.000832 ± 2e-05 1/K	0.000819 ± 2e-05 1/K	0.000811 ± 2e-05 1/K	0.000799 ± 2e-05 1/K	0.000789 ± 1.9e-05 1/K	0.000772 ± 1.9e-05 1/K	0.000771 ± 1.9e-05 1/K	0.000759 ± 1.9e-05 1/K	0.000754 ± 1.8e-05 1/K
298.15 K	0.000849 ± 2.1e-05 1/K	0.000832 ± 2e-05 1/K	0.000825 ± 2e-05 1/K	0.000809 ± 2e-05 1/K	0.000798 ± 2e-05 1/K	0.000788 ± 1.9e-05 1/K	0.000775 ± 1.9e-05 1/K	0.000773 ± 1.9e-05 1/K	0.000759 ± 1.9e-05 1/K	0.000749 ± 1.8e-05 1/K
308.15 K	0.000852 ± 2.1e-05 1/K	0.000842 ± 2.1e-05 1/K	0.000827 ± 2e-05 1/K	0.000814 ± 2e-05 1/K	0.000799 ± 2e-05 1/K	0.000788 ± 1.9e-05 1/K	0.000773 ± 1.9e-05 1/K	0.000765 ± 1.9e-05 1/K	0.000755 ± 1.9e-05 1/K	0.000743 ± 1.8e-05 1/K
318.15 K	0.000857 ± 2.1e-05 1/K	0.00084 ± 2.1e-05 1/K	0.000826 ± 2e-05 1/K	0.000811 ± 2e-05 1/K	0.000798 ± 2e-05 1/K	0.000789 ± 1.9e-05 1/K	0.000773 ± 1.9e-05 1/K	0.000764 ± 1.9e-05 1/K	0.000754 ± 1.8e-05 1/K	0.000743 ± 1.8e-05 1/K
328.15 K	0.000853 ± 2.1e-05 1/K	0.000837 ± 2.1e-05 1/K	0.000819 ± 2e-05 1/K	0.000808 ± 2e-05 1/K	0.000794 ± 1.9e-05 1/K	0.000782 ± 1.9e-05 1/K	0.000772 ± 1.9e-05 1/K	0.00076 ± 1.9e-05 1/K	0.000751 ± 1.8e-05 1/K	0.000736 ± 1.8e-05 1/K
338.15 K	0.000863 ± 2.1e-05 1/K	0.000843 ± 2.1e-05 1/K	0.000826 ± 2e-05 1/K	0.000813 ± 2e-05 1/K	0.000799 ± 2e-05 1/K	0.000786 ± 1.9e-05 1/K	0.000776 ± 1.9e-05 1/K	0.000762 ± 1.9e-05 1/K	0.000747 ± 1.8e-05 1/K	0.000738 ± 1.8e-05 1/K
348.15 K	0.00087 ± 2.1e-05 1/K	0.00085 ± 2.1e-05 1/K	0.000832 ± 2e-05 1/K	0.000818 ± 2e-05 1/K	0.000802 ± 2e-05 1/K	0.000788 ± 1.9e-05 1/K	0.000774 ± 1.9e-05 1/K	0.000761 ± 1.9e-05 1/K	0.000749 ± 1.8e-05 1/K	0.000737 ± 1.8e-05 1/K
